In test [1] the target is T1, GST-RIPK2 fusion protein (human RIPK2, amino acids 1-310) (Homo sapiens, UniProt O43353).
T1 construct: made in house; host or cells: baculovirus infected Sf9 cells
The test can be described thus: RIPK2 binding competition assay (TR-FRET, Tracer 199 displacement). Particulars: 10 nM Tracer 199, 1 nM GST-RIPK2, read-out: RIPK2 IC50. The gist of the method:
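GST-RIPK2 (human aa 1-310, Sf9-expressed; final 1 nM) with Tracer 199 (final 10 nM) and Tb-anti-GST (final 0.5 nM) in Tris pH 7.5 buffer, 45 min at 22 °C. TR-FRET 665/620 nm ratio after 337 nm excitation; normalized to no-inhibitor (0%) and no-protein (−100%), giving IC50.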
A general note: Time-resolved FRET reads energy transfer from a long-lived donor to a nearby acceptor.

Test [2] has as its target T2, binding of His-XIAP(BIR2)-avi fusion protein to GST-RIPK2 fusion protein (RIPK2/XIAP) (Homo sapiens, UniProt O43353).
T2 construct: made in house; host or cells: baculovirus infected Sf9 cells
The test can be described thus: RIPK2-XIAP binding competition PPI assay (TR-FRET). Particulars: RIPK2/XIAP binding competition PPI assay; for Emax: Amax, read-out: PPI Amax bin; for IC50: read-out: PPI IC50 bin. The gist of the method: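 Compounds (in DMSO, 100-fold stock) incubated 120 min at 23 °C with 1 nM GST-RIPK2 (aa 1-310) and 25 nM His-XIAP(BIR2 aa 152-231)-avi, plus anti-His-XL665 and anti-GST-Tb, in pH 7.5 Tris buffer. Read-out: 665/520 nm emission ratio. Normalized to no-inhibitor (0%) and 50 nM GSK583 (−100%); Amax binned A–D.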

Test [3] concerns NF-κB pathway (SEAP) in THP1-Dual cells. The test can be described thus: THP-1 Dual cell SEAP assay (L18-MDP stimulated). The format is cell-based. Particulars: Homo sapiens, THP1-Dual, read-out: NF-κB THP1 IC50 bin. Put shortly: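 THP1-Dual cells (~25,000/well) were preincubated 30 min with serially diluted compounds, then stimulated with 10 ng/mL L18-MDP (final) for 20-24 h at 37 °C. Supernatant SEAP was read with QUANTI-Blue at OD 620-655 nm after 2 h. IC50 came from non-linear fits of % inhibition versus DMSO/L18-MDP controls after media-blank subtraction.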

This note sets out measurements from patent US20260137706A1, “METHODS OF TREATING INFLAMMATORY DISEASES” (INTERLINE THERAPEUTICS, INC., priority 2023, published 2026).

Some results are limits rather than exact numbers.

T2 sequence (O43353 1-310 limits assumed): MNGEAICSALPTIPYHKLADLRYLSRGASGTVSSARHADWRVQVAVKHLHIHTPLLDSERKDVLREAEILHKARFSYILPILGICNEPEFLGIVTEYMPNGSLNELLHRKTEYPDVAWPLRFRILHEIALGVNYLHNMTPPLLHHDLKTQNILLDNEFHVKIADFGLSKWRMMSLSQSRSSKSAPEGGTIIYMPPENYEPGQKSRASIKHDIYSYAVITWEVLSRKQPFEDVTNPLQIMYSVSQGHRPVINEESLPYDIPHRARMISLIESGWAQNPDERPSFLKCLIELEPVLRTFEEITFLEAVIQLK
T1 sequence (O43353 1-310): as the sequence (O43353 1-310 limits assumed) above

One may read the IC50 as the concentration needed to halve the response being measured. With `CC(C)(C)S(=O)(=O)c1cc2c(-c3cc(F)c(N)nc3F)cnn2cc1OCC(O)CO` (centres unmarked) [Example 246, 3-((3-(6-amino-2,5-difluoropyridin-3-yl)-5-(tert-butylsulfonyl)pyrazolo [1,5-a]pyridin-6-yl)oxy)propane-1,2-diol], the IC50 in test [1] is 1 to 2.5 nM; in test [2], 1 to 2.5 nM; in test [3], 50 to 250 nM. Besides, in test [2], the Emax was > 80%.
`COc1cc2ncc(-c3cc(F)c(N)nc3F)n2cc1C1CCCN(C)C1=O` (centres unmarked) [Example 213, 3-(3-(6-amino-2,5-difluoropyridin-3-yl)-7-methoxyimidazo[1,2-a]pyridin-6-yl)-1-methylpiperidin-2-one]: the IC50 in test [1] was > 20 nM; in test [2], > 20 nM; in test [3] it was > 1000 nM. Moreover, the Emax in test [2] is 55 to 80%.
Turning to `C[C@H](CO)Oc1cc2ncc(-c3cc(Cl)c(N)nc3F)n2cc1S(=O)(=O)C(C)(C)C` [Example 258, (R)-2-((3-(6-amino-5-chloro-2-fluoropyridin-3-yl)-6-(tert-butylsulfonyl)imidazo [1,2-a]pyridin-7-yl)oxy)propan-1-ol], the IC50 in test [1] fell in the range of 2.5 to 20 nM; in test [2], 2.5 to 20 nM; in test [3], 250 to 1000 nM. The Emax in test [2] was > 80%.
Turning to `COc1cc2ncc(-c3cc4cc[nH]c4nc3F)n2cc1S(=O)(=O)C(C)(C)C` [Example 216, 6-(tert-butylsulfonyl)-3-(6-fluoro-1H-pyrrolo[2,3-b]pyridin-5-yl)-7-methoxyimidazo[1,2-a]pyridine], the IC50 in test [1] is < 1 nM; in test [2], < 1 nM; in test [3], < 50 nM. Moreover, the Emax in test [2] is > 80%.
`OCCCNc1cc(-c2cnn3ccc(C(F)(F)F)cc23)cc(F)n1` [Example 6, 3-((6-fluoro-4-(5-(trifluoromethyl)pyrazolo[1,5-a]pyridin-3-yl)pyridin-2-yl)amino)propan-1-ol]: the IC50 in test [1] is 2.5 to 20 nM; in test [2], > 20 nM; in test [3], 50 to 250 nM. The Emax in test [2] is < 30%.
For `CCCS(=O)(=O)Nc1cc(-c2cnc3cc(OC)c(C(=O)N4CCNCC4)cn23)cc(F)c1OC` [Example 191, N-(3-fluoro-2-methoxy-5-(7-methoxy-6-(piperazine-1-carbonyl)imidazo[1,2-a]pyridin-3-yl)phenyl)propane-1-sulfonamide], the IC50 is 2.5 to 20 nM in test [1], 2.5 to 20 nM in test [2] and > 1000 nM in test [3]. The Emax in test [2] is > 80%.
In the case of `Cc1c(-c2cnc3cc(OCCO)c(S(=O)(=O)C(C)(C)C)cn23)cnc(N)c1F` [Example 50, 2-((3-(6-amino-5-fluoro-4-methylpyridin-3-yl)-6-(tert-butylsulfonyl)imidazo[1,2-a]pyridin-7-yl)oxy)ethan-1-ol], the IC50 was > 20 nM in test [1], > 20 nM in test [2] and > 1000 nM in test [3]. Moreover, the Emax in test [2] is 55 to 80%.
As to `COc1cc2ncc(-c3cccc(NS(=O)(=O)C4CCN(C(=O)OC(C)(C)C)CC4)c3)n2cc1S(=O)(=O)C(C)(C)C` [Example 157, tert-butyl 4-(N-(3-(6-(tert-butylsulfonyl)-7-methoxyimidazo[1,2-a]pyridin-3-yl)phenyl)sulfamoyl)piperidine-1-carboxylate], the results for the IC50 in test [1], in test [2] and in test [3] were > 20 nM, > 20 nM and > 1000 nM, respectively. Also, the Emax in test [2] fell in the range of 55 to 80%.
For `COc1cc2ncc(-c3cc(N)nc(F)c3)n2cc1C(F)(F)F` [Example 2, 6-fluoro-4-(7-methoxy-6-(trifluoromethyl)imidazo[1,2-a]pyridin-3-yl)pyridin-2-amine], the IC50 is 2.5 to 20 nM in test [1], > 20 nM in test [2] and 50 to 250 nM in test [3]. Besides, the Emax in test [2] was < 30%.
For the molecule `COc1cc2ncc(-c3cc(F)c(OC)c(NS(=O)(=O)c4cccnc4)c3)n2cc1S(=O)(=O)C(C)(C)C` [Example 141, N-(5-(6-(tert-butylsulfonyl)-7-methoxyimidazo[1,2-a]pyridin-3-yl)-3-fluoro-2-methoxyphenyl)pyridine-3-sulfonamide], the IC50 in test [1] was < 1 nM; in test [2], < 1 nM; in test [3] it was < 50 nM. Moreover, in test [2], the Emax was > 80%.
With `COc1cc2ncc(-c3cc(F)c(OC)c4nn(CCO)cc34)n2cc1S(=O)(=O)C(C)(C)C` [Example 122, 2-(4-(6-(tert-butylsulfonyl)-7-methoxyimidazo[1,2-a]pyridin-3-yl)-6-fluoro-7-methoxy-2HI-indazol-2-yl)ethan-1-ol], the figures for the IC50 in test [1], in test [2] and in test [3] were > 20 nM, > 20 nM and > 1000 nM, respectively. In addition, in test [2], the Emax is < 30%.
With `COc1cc2ncc(-c3ccc4c(N)nn(C)c4c3)n2cc1S(=O)(=O)C(C)(C)C` [Example 102, 6-(6-(tert-butylsulfonyl)-7-methoxyimidazo[1,2-a]pyridin-3-yl)-1-methyl-1H-indazol-3-amine], the IC50 was > 20 nM in test [1], > 20 nM in test [2] and > 1000 nM in test [3]. Also, in test [2], the Emax was < 30%.
For `COc1cc2ncc(-c3cnc4c(c3)OCCN4)n2cc1S(=O)(=O)C(C)(C)C` [Example 84, 7-(6-(tert-butylsulfonyl)-7-methoxyimidazo[1,2-a]pyridin-3-yl)-3,4-dihydro-2H-pyrido[3,2-b][1,4]oxazine], the IC50 is > 20 nM in test [1], > 20 nM in test [2] and > 1000 nM in test [3]. The Emax in test [2] was in the range of 55 to 80%.
Regarding `COc1cc2ncc(-c3cnc4cc(N)ccc4c3)n2cc1S(=O)(=O)C(C)(C)C` [Example 92, 3-(6-(tert-butylsulfonyl)-7-methoxyimidazo[1,2-a]pyridin-3-yl)quinolin-7-amine], the IC50 was > 20 nM in test [1], > 20 nM in test [2] and > 1000 nM in test [3]. The Emax in test [2] was 30 to 55%.
With `COc1cc2ncc(-c3cccc(NS(=O)(=O)C4CCN(C(=O)OC(C)(C)C)C4)c3)n2cc1S(=O)(=O)C(C)(C)C` (centres unmarked) [Example 153, tert-butyl 3-(N-(3-(6-(tert-butylsulfonyl)-7-methoxyimidazo[1,2-a]pyridin-3-yl)phenyl)sulfamoyl)pyrrolidine-1-carboxylate], the IC50 in test [1] is 2.5 to 20 nM; in test [2], > 20 nM; in test [3], > 1000 nM. Further, the Emax in test [2] is > 80%.
In the case of `CC(C)(C)S(=O)(=O)c1cn2c(-c3cnc4[nH]cc(Cl)c4c3)cnc2cc1OCCO` [Example 219, 2-((6-(tert-butylsulfonyl)-3-(3-chloro-1H-pyrrolo[2,3-b]pyridin-5-yl)imidazo[1,2-a]pyridin-7-yl)oxy)ethan-1-ol], the IC50 in test [1] lay within 1 to 2.5 nM; in test [2] it was 1 to 2.5 nM; in test [3], 50 to 250 nM. The Emax in test [2] is > 80%.
`CC(C)(C)S(=O)(=O)c1cn2c(-c3cc4c(F)c[nH]c4nc3F)cnc2cc1OCCO` [Example 236, 2-((6-(tert-butylsulfonyl)-3-(3,6-difluoro-1H-pyrrolo[2,3-b]pyridin-5-yl)imidazo[1,2-a]pyridin-7-yl)oxy)ethan-1-ol]: the figures for the IC50 in test [1], in test [2] and in test [3] were < 1 nM, < 1 nM and < 50 nM, respectively. Also, the Emax in test [2] is > 80%.
Regarding `C[C@H](O)COc1cn2ncc(-c3cc(Cl)c(N)nc3F)c2cc1S(=O)(=O)C(C)(C)C` [Example 46, (S)-1-((3-(6-amino-5-chloro-2-fluoropyridin-3-yl)-5-(tert-butylsulfonyl)pyrazolo[1,5-a]pyridin-6-yl)oxy)propan-2-ol], the IC50 in test [1] is 1 to 2.5 nM; in test [2], 1 to 2.5 nM; in test [3] it was 50 to 250 nM. The Emax in test [2] was > 80%.
`COc1c(F)cc(-c2cnn3cc(OCCO)c(S(=O)(=O)C(C)(C)C)cc23)cc1NS(=O)(=O)c1cnn(C)c1` [Example 226, N-(5-(5-(tert-butylsulfonyl)-6-(2-hydroxyethoxy)pyrazolo [1,5-a]pyridin-3-yl)-3-fluoro-2-methoxyphenyl)-1-methyl-1H-pyrazole-4-sulfonamide]: the IC50 was < 1 nM in test [1], < 1 nM in test [2] and < 50 nM in test [3]. Moreover, in test [2], the Emax is > 80%.
`C[C@@H](O)COc1cc2ncc(-c3cc4cc[nH]c4nc3F)n2cc1S(=O)(=O)C(C)(C)C` [Example 251, (R)-1-((6-(tert-butylsulfonyl)-3-(6-fluoro-1H-pyrrolo[2,3-b]pyridin-5-yl)imidazo[1,2-a]pyridin-7-yl)oxy)propan-2-ol]: the IC50 in test [1] is < 1 nM; in test [2] it was < 1 nM; in test [3] it was < 50 nM. Further, the Emax in test [2] was > 80%.
